In publication PMC11304049 (RSC Advances, 2024):
Several values for one entry are separate records, joined by “and”; a condition that tells them apart may be missing. Equal values may be shown once. Read-outs that look alike come from different tables or passages of the source.

Columns and labels:
Pf3D7 [1] = details: read-out: Pf3D7 IC50; reference drugs, reported earlier; cited from earlier work
PfW2 [2] = details: read-out: PfW2 IC50; reference drugs, reported earlier; cited from earlier work
Pf3D7 [3] = assay: microbe, parasite or virus in culture; type: cell-based; details: Plasmodium falciparum, 3D7, read-out: Pf3D7 IC50
PfW2 [4] = assay: microbe, parasite or virus in culture; type: cell-based, Plasmodium falciparum; details: read-out: PfW2 IC50
[5] = Cytotoxicity by MTT assay, Vero cells; type: cell-based; details: African green monkey, Vero cells
Vero cell = assay: Cytotoxicity by MTT assay, Vero cells; type: cell-based; details: for Selectivity index (SI) with Pf3D7 strain, Vero cell: cytotoxicity IC50 / Pf3D7 IC50; for Selectivity index (SI) with PfW2 strain, Vero cell: cytotoxicity IC50 / PfW2 IC50
[6] = Cytotoxicity by MTT assay, lung cancer A5489 cell line; type: cell-based, human; details: human, lung cancer A5489 cell line
[7] = system: lung cancer A5489 cell line; assay: as above; type: cell-based, human; details: for Selectivity index (SI) with Pf3D7 strain, A5489: cytotoxicity IC50 / Pf3D7 IC50; for Selectivity index (SI) with PfW2 strain, A5489: cytotoxicity IC50 / PfW2 IC50
[8] = system: early ring stage 3D7 parasite of P. falciparum; assay: Impact on parasite growth and morphology; type: cell-based, Plasmodium falciparum; details: ring-stage parasites, 3 × IC50 concentration, smears after 24 and 48 hours
Falcipain-2 = target: T1, Falcipain-2 (Plasmodium falciparum, UniProt Q8I6U4); assay: biochemical; details: Falcipain-2 (IC50 μM), mean of triplicate
T1 sequence (Q8I6U4 244-484): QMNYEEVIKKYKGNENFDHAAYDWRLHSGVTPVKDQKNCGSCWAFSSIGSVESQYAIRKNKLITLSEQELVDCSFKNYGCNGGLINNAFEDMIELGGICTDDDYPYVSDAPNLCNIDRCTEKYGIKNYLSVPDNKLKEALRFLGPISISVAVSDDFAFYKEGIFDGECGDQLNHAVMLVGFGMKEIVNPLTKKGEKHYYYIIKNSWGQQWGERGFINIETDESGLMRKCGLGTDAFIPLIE

Falcipain-3 = target: T2, Falcipain-3 (Plasmodium falciparum, UniProt Q8IIL0); assay: biochemical
T2 sequence (Q8IIL0 243-492): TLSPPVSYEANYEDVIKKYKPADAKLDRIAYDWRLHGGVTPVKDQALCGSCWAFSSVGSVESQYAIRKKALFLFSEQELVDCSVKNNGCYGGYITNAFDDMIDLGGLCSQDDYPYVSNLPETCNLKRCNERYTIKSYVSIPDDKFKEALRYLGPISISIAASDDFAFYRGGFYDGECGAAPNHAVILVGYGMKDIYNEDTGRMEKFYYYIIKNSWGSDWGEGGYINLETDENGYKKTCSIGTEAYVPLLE

In the case of CCN(CC)CCCC(C)Nc1ccnc2cc(Cl)ccc12 (stereo not drawn) [CQ, Chloroquine], the IC50 (Pf3D7 [1]) is listed as 0.018 ± 0.002 µM and the IC50 (PfW2 [2]) is listed as 0.051 ± 0.001 µM.

For CCc1nc(N)nc(N)c1-c1ccc(Cl)cc1 [PYR, pyrimethamine], the IC50 (Pf3D7 [1]) is given as 0.015 ± 0.0002 µM and the IC50 (PfW2 [2]) is given as 129 ± 11.3 µM.

For O=C1CC2(CCN(c3cc(N4CCN(S(=O)(=O)c5ccc([N+](=O)[O-])cc5)CC4)ncn3)CC2)Oc2ccccc21 [SZ1, 1′-(6-(4-((4-Nitrophenyl)sulfonyl)piperazin-1-yl)pyrimidin-4-yl)spiro[chromane-2,4′-piperidin]-4-one], the IC50 (Pf3D7 [3]) was 14.8 ± 0.24 µM, the IC50 (PfW2 [4]; Plasmodium falciparum) was > 14 µM and the IC50 (PfW2 [4]) was > 15 µM.

For O=C1CC2(CCN(c3cc(N4CCN(S(=O)(=O)c5ccccc5[N+](=O)[O-])CC4)ncn3)CC2)Oc2ccccc21 [SZ2, 1′-(6-(4-((2-Nitrophenyl)sulfonyl)piperazin-1-yl)pyrimidin-4-yl)spiro [chromane-2,4′-piperidin]-4-one], the IC50 (Pf3D7 [3]) was 18.1 ± 0.43 µM, the IC50 (PfW2 [4]; Plasmodium falciparum) was > 14 µM and the IC50 (PfW2 [4]) was > 15 µM.

In the case of O=C1CC2(CCN(c3cc(N4CCN(S(=O)(=O)c5ccc6ccccc6c5)CC4)ncn3)CC2)Oc2ccccc21 [SZ3, 1′-(6-(4-(Naphthalen-2-ylsulfonyl)piperazin-1-yl)pyrimidin-4-yl)spiro[chromane-2,4′-piperidin]-4-one], the IC50 (Pf3D7 [3]) is reported as 25.2 ± 0.35 µM and the IC50 (PfW2 [4]; Plasmodium falciparum) is reported as > 15 µM.

N#Cc1ccc(S(=O)(=O)N2CCN(c3cc(N4CCC5(CC4)CC(=O)c4ccccc4O5)ncn3)CC2)cc1 [SZ4, 4-((4-(6-(4-Oxospiro[chromane-2,4′-piperidin]-1′-yl)pyrimidin-4-yl)piperazin-1-yl)sulfonyl)benzonitrile] showed an IC50 (Pf3D7 [3]) of 6.33 ± 0.29 µM and an IC50 (PfW2 [4]; Plasmodium falciparum) of 14.4 ± 0.16 µM.

Molecule O=C1CC2(CCN(c3cc(N4CCN(S(=O)(=O)c5cccs5)CC4)ncn3)CC2)Oc2ccccc21 [SZ5, 1′-(6-(4-(Thiophen-2-ylsulfonyl)piperazin-1-yl)pyrimidin-4-yl) spiro[chromane-2,4′-piperidin]-4-one] has an IC50 (Pf3D7 [3]) of 7.45 ± 0.37 µM and an IC50 (PfW2 [4]; Plasmodium falciparum) of 13.3 ± 0.19 µM.

O=C1CC2(CCN(c3cc(N4CCN(S(=O)(=O)c5cccnc5)CC4)ncn3)CC2)Oc2ccccc21 [SZ7, 1′-(6-(4-(Pyridin-3-ylsulfonyl)piperazin-1-yl)pyrimidin-4-yl)spiro[chromane-2,4′-piperidin]-4-one] showed an IC50 (Pf3D7 [3]) of 7.97 ± 0.33 µM and an IC50 (PfW2 [4]; Plasmodium falciparum) of 5.64 ± 0.18 µM.

O=C1CC2(CCN(c3cc(N4CCN(S(=O)(=O)c5ccccc5F)CC4)ncn3)CC2)Oc2ccccc21 [SZ8, 1′-(6-(4-((2-Fluorophenyl)sulfonyl)piperazin-1-yl)pyrimidin-4-yl)spiro[chromane-2,4′-piperidin]-4-one] gave an IC50 (Pf3D7 [3]) of 5.61 ± 0.42 µM and an IC50 (PfW2 [4]; Plasmodium falciparum) of 8.12 ± 0.37 µM.

With O=C1CC2(CCN(c3cc(N4CCN(S(=O)(=O)c5ccc(F)cc5)CC4)ncn3)CC2)Oc2ccccc21 [SZ9, 1′-(6-(4-((4-Fluorophenyl)sulfonyl)piperazin-1-yl)pyrimidin-4-yl)spiro[chromane-2,4′-piperidin]-4-one] the IC50 (Pf3D7 [3]) was 3.22 ± 0.07 µM, the IC50 (PfW2 [4]; Plasmodium falciparum) was 3.89 ± 0.23 µM and the IC50 at 72 h [5] was > 1000 µM. For the same molecule, the “Selectivity index (SI) with Pf3D7 strain, Vero cell” value (Vero cell) was 310.55, the “Selectivity index (SI) with PfW2 strain, Vero cell” value (Vero cell) was 257.06 and the IC50 at 24 h [6] was 78.5 ± 2.76 µM. The “Selectivity index (SI) with Pf3D7 strain, A5489” value [7] was 24.36, the “Selectivity index (SI) with PfW2 strain, A5489” value [7] was 20.17 and the “Effect on erythrocytic growth of the parasite” value (from here on “Effect on erythrocytic growth”) [8] was “stopped at the early trophozoite stage”. For the same molecule, the IC50 (Falcipain-2) was 5.4 µM and 4.9 µM and the IC50 (Falcipain-3) was 6.3 ± 1.2 µM.

In the case of O=C1CC2(CCN(c3cc(N4CCN(S(=O)(=O)c5cc(F)cc(F)c5)CC4)ncn3)CC2)Oc2ccccc21 [SZ10, 1′-(6-(4-((3,5-Difluorophenyl)sulfonyl)piperazin-1-yl)pyrimidin-4-yl) spiro [chromane-2,4′-piperidin]-4-one], the IC50 (Pf3D7 [3]) is reported as 4.55 ± 0.34 µM, the IC50 (PfW2 [4]; Plasmodium falciparum) is reported as 6.67 ± 0.16 µM and the IC50 at 72 h [5] is reported as > 1000 µM. The “Selectivity index (SI) with Pf3D7 strain, Vero cell” value (Vero cell) was 219.79, the “Selectivity index (SI) with PfW2 strain, Vero cell” value (Vero cell) was 149.92 and the IC50 at 24 h [6] was 122 ± 3.39 µM. The “Selectivity index (SI) with Pf3D7 strain, A5489” value [7] was 26.91, the “Selectivity index (SI) with PfW2 strain, A5489” value [7] was 18.35 and the “Effect on erythrocytic growth” value [8] was “stopped at the early trophozoite stage”. It also gave an IC50 (Falcipain-2) of 7.2 ± 1.8 µM and an IC50 (Falcipain-3) of 8.8 ± 1.5 µM.

For O=C1CC2(CCN(c3cc(N4CCN(S(=O)(=O)c5ccc(F)c(F)c5)CC4)ncn3)CC2)Oc2ccccc21 [SZ11, 1′-(6-(4-((3,4-Difluorophenyl)sulfonyl)piperazin-1-yl)pyrimidin-4-yl)spiro [chromane-2,4′-piperidin]-4-one], the IC50 (Pf3D7 [3]) was 3.92 ± 0.25 µM, the IC50 (PfW2 [4]; Plasmodium falciparum) was 5.58 ± 0.19 µM and the IC50 at 72 h [5] was > 1000 µM. For the same molecule, the “Selectivity index (SI) with Pf3D7 strain, Vero cell” value (Vero cell) was 255.10, the “Selectivity index (SI) with PfW2 strain, Vero cell” value (Vero cell) was 179.21 and the IC50 at 24 h [6] was 94.2 ± 2.97 µM. For the same molecule, the “Selectivity index (SI) with Pf3D7 strain, A5489” value [7] was 24.01, the “Selectivity index (SI) with PfW2 strain, A5489” value [7] was 16.87 and the “Effect on erythrocytic growth” value [8] was “stopped at the early trophozoite stage”. It also gave an IC50 (Falcipain-2) of 6.5 ± 1.6 µM and an IC50 (Falcipain-3) of 8 ± 1.4 µM.

With Cc1noc(C)c1S(=O)(=O)N1CCN(c2cc(N3CCC4(CC3)CC(=O)c3ccccc3O4)ncn2)CC1 [SZ12, 1′-(6-(4-((3,5-Dimethylisoxazol-4-yl)sulfonyl)piperazin-1-yl)pyrimidin-4-yl) spiro[chromane-2,4′-piperidin]-4-one] the IC50 (Pf3D7 [3]) was 8.46 ± 0.28 µM and the IC50 (PfW2 [4]; Plasmodium falciparum) was > 15 µM.

With O=C1CC2(CCN(c3cc(N4CCN(S(=O)(=O)N5CCOCC5)CC4)ncn3)CC2)Oc2ccccc21 [SZ13, 1′-(6-(4-(Morpholinosulfonyl)piperazin-1-yl)pyrimidin-4-yl) spiro[chromane-2,4′-piperidin]-4-one] the IC50 (Pf3D7 [3]) was 22.2 ± 0.36 µM and the IC50 (PfW2 [4]; Plasmodium falciparum) was > 15 µM.

For O=C1CC2(CCN(c3cc(N4CCN(S(=O)(=O)c5cccc(C(F)(F)F)c5)CC4)ncn3)CC2)Oc2ccccc21 [SZ14, 1′-(6-(4-((3-(Trifluoromethyl)phenyl)sulfonyl)piperazin-1-yl)pyrimidin-4-yl)spiro [chromane-2,4′-piperidin]-4-one], the IC50 (Pf3D7 [3]) was 2.84 ± 0.21 µM, the IC50 (PfW2 [4]; Plasmodium falciparum) was 2.84 µM and the IC50 (PfW2 [4]) was 3.12 ± 0.14 µM. For the same molecule, the IC50 at 72 h [5] was > 1000 µM, the “Selectivity index (SI) with Pf3D7 strain, Vero cell” value (Vero cell) was 352.11 and the “Selectivity index (SI) with PfW2 strain, Vero cell” value (Vero cell) was 320.51. The IC50 at 24 h [6] was 66.2 ± 2.14 µM, the “Selectivity index (SI) with Pf3D7 strain, A5489” value [7] was 23.31 and the “Selectivity index (SI) with PfW2 strain, A5489” value [7] was 21.22. The “Effect on erythrocytic growth” value [8] was “stopped at the early trophozoite stage”, the IC50 (Falcipain-2) was 4.1 ± 1.1 µM and the IC50 (Falcipain-3) was 5.4 ± 0.7 µM.
